In data set [1] the test system is rat models with hand-foot skin reaction. As to the kind of experiment: Rat models with hand-foot skin reaction, topical ointment (incidence rate, histology, immunohistochemistry). The note with it: for Incidence rate, left paw / Incidence rate, right paw: modeling drug alone by gavage once daily 30 days (sorafenib 100, erlotinib 70, afatinib 50, osimertinib 60 mg/kg), no compound in ointment; for successful modeling rates for the hand-foot skin reaction: once daily by gavage at 100, 70, 50 and 60 mg/kg (sorafenib, erlotinib, afatinib, osimertinib), SD rats. Format: in vivo, SD rats. The procedure:
After adaptive feeding for one week, SD rats (with a body weight of approximately 200 g) were randomly divided into groups with balanced body weight, with 12 rats in each group. Modeling drugs (including sorafenib, erlotinib, afatinib, and osimertinib) were respectively dissolved in a solution containing 5% of DMSO, 45% of PEG400, and 50% of H2O, and the modeling drugs were diluted to required concentrations and then administered once daily by gavage at doses shown in Table 3. After administration by gavage for 1 hour, 0.05 g of ointments containing different mass proportions of test compounds were evenly applied to left paws of the rats, a blank matrix ointment was applied to right paws of the rats to serve as a self-control, and no ointment was applied to the rats in a blank control group. After drug application, four limbs were continuously immobilized for 2 hours, then wiped with clean water to remove the residual drugs, removed from immobilization, and restored to free movement. The modeling drugs, the blank matrix ointment, and the ointments containing the test compounds were all administered once daily. After continuous administration for 30 days, the rats were euthanized, and paw plantar skin tissues were collected, fixed in 10% neutral formalin, […]. The ointments for the test compounds were prepared by mixing the compounds, white beeswax, white petrolatum, and light liquid paraffin in specific ratios (weight ratios of 3 ointments were respectively 1:18:58:23, 3:18:57:22, and 10:20:40:30). The blank matrix ointment was prepared by mixing white beeswax, white petrolatum, and light liquid paraffin in a specific ratio (weight ratio of 18:60:22).
Tissue staining: After dewaxing and rehydration, the paw plantar skin tissue sections of the above rats were stained in a hematoxylin solution for several minutes, cleaned, and placed in 1% acid alcohol for soaking until the sections faded to light blue-red. After cleaning with running water for 5 minutes, the sections were stained with eosin for 2-3 minutes, cleaned to remove excess dyes, dehydrated, then permeabilized by adding xylene for several minutes, and sealed and fixed with a neutral resin. The stratum corneum was observed under an optical microscope, and the thickness of the epidermal stratum corneum was measured using Dmetrix software.
Immunohistochemical staining: After dewaxing and hydration, the paw plantar skin tissue sections of the above rats were incubated with 3% H2O2 at room temperature for 30 minutes and blocked with 10% goat serum for 30 minutes after antigen retrieval. A KRT1 antibody (Abcam, ab93652) and a Loricrin antibody (Abcam, ab183646) were added dropwise, the sections were incubated overnight at 4°C, and an HRP secondary antibody (ZSGB-BIO, PV-6001) and a DAB kit (ZSG-BIO, ZLI9017) were added for color development. The sections were re-stained with hematoxylin, cleaned, and sealed and fixed with a neutral resin, and the expression amounts of KRT1 and Loricrin were observed under an optical microscope.
An incidence rate calculation method involves a proportion of animals in each group meeting the above criteria for determining successful modeling, that is, incidence rate = (number of successfully modeled rats/total number of rats in the group)*100%. […]

In data set [2] the test system is chemotherapeutic drug-induced mouse model with hand-foot syndrome. As to the kind of experiment: Chemotherapeutic drug-induced mouse model with hand-foot syndrome. The following applies: for degree of swelling of the hind limb toes of the mice: continuous oral administration of modeling drug for 14 days; for epidermal layer and stratum corneum in the skin tissues of the hind limb toes: modeling drug oral for 14 days versus normal control group, pathological staining; for skin of the hind limb toes of the mice (appearance): modeling for 14 days (capecitabine 200 mg/kg, docetaxel 25 mg/kg oral), versus normal control group. Type of data set: in vivo, ICR mice. From the text: After adaptive feeding for 7 days, SPF-grade ICR mice (male, 5-6 weeks old, with a body weight of approximately 35 g) were randomly divided into groups, including a blank control group (6 mice), a capecitabine modeling group (6 mice), a docetaxel modeling group (6 mice), a capecitabine + compound of formula (I) group (6 mice), a docetaxel + compound of formula (I) group (6 mice), a capecitabine + nicotinamide group (6 mice), and a docetaxel + nicotinamide group (6 mice). The groups were respectively administered corresponding modeling drugs by oral gavage (capecitabine at 200 mg/kg and docetaxel at 25 mg/kg) once daily; and the blank control group was administered an equivalent volume of normal saline. After administration with the chemotherapeutic drugs for 2 weeks, the ointments containing the compound of formula (I) (at a compound content of 3%) used in Example 10 were respectively applied topically in the groups, or nicotinamide was orally administered (100 mg/kg) once daily continuously for 16 days.
(§1) Measurement of the degree of swelling of toes: The degree of swelling of hind limb toes of the mice was measured using a toe swelling tester (KW-7C, Nanjing Calvin Biotechnology Co., Ltd.) before administration with the modeling drugs, after administration with the modeling drugs for 2 weeks, and before sacrifice, respectively. Before measurement, ankle joints of hind feet of the mice were marked at same positions before administration, after administration for 2 weeks, and before sacrifice. During measurement, water was properly located at the same level as the marked positions, and numerical values were recorded after becoming stable.
(§2) Pathological staining of skin tissues: Skin tissue samples were selected from hind limb toes of the mice and placed in 4% paraformaldehyde for fixation at room temperature for 4 hours. Then, the tissues were taken out and rinsed with running water for several hours. The samples were subjected to dehydration treatment with 70%, 80%, and 90% ethanol solutions, followed by treatment with a mixed solution of equal amounts of absolute alcohol and xylene for 15 minutes, and then permeabilized twice with a xylene solution for 15 minutes each time until the samples became transparent. The samples were placed in a mixture of half xylene and half paraffin for soaking for 15 minutes, and then, paraffin I and paraffin II were added for wax penetration for one hour, respectively. After embedding with paraffin, the samples were sectioned, baked, dewaxed, and hydrated. Then, the hydrated sections were placed in a hematoxylin solution (ZSGB-BIO, article No. 23041001) for staining for 3 minutes, and a differentiation solution of hydrochloric acid in ethanol was added for differentiation for 15 seconds. After rinsing with water, a Scott bluing solution (Servicebio, article No. 20230801) was added for bluing for 15 seconds. After rinsing with running water, the sections were stained with an eosin solution (Solarbio, article No. 33535) for 3 minutes, rinsed with running water, dehydrated, permeabilized, sealed, and inspected under a microscope.
(§3) Immunohistochemical staining: After baking, dewaxing, and hydration, paraffin sections of skin tissues of hind limb toes of the mice were subjected to antigen retrieval using a 0.2 M citric acid buffer solution (containing 1.534 g of citric acid, 3.1 g of sodium citrate, and 100 mL of distilled water, pH 4.7). Endogenous […] was removed using 3% hydrogen peroxide (Shandong Annjet High-Tech Disinfection Technology Co., Ltd., article No. 20290902), and the sections were incubated at room temperature for 10 minutes and then fully rinsed with a PBS buffer solution (containing 8 g of NaCl, 0.2 g of KCl, 1.44 g of Na2HPO4, and 1 M HCl, pH 7.4). The sections were permeabilized with 0.5% Triton-X-100 (AmyJet Scientific, article No. A-CSH436-100 mL), respectively permeabilized with mouse anti-IL-1β and rabbit IL-8 for 10 minutes, and not permeabilized with rabbit anti-IL-6. […]

Data set [3] relates to kinase inhibitor-induced mouse model with hand-foot skin reaction. Nature of the data set: Kinase inhibitor-induced mouse model with hand-foot skin reaction. Format: in vivo, ICR mice. The note with it: for degree of swelling of the hind limb toes of the mice: continuous oral administration of modeling drug for 14 days; for epidermal layer and stratum corneum in the skin tissues of the hind limb toes: modeling drug oral for 14 days versus normal control group, pathological staining; for skin of the hind limb toes of the mice (appearance): modeling for 14 days (sorafenib 100 mg/kg, osimertinib 10 mg/kg oral), versus normal control group; for cytokine IL-1β in the skin tissues of the hind limb toes: immunohistochemistry, p<0.05.
Description: After adaptive feeding for 7 days, SPF-grade ICR mice (male, 5-6 weeks old, with a body weight of approximately 35 g) were randomly divided into groups, including a blank control group (6 mice), a sorafenib modeling group (6 mice), an osimertinib modeling group (6 mice), a sorafenib + compound of formula (I) group (6 mice), an osimertinib + compound of formula (I) group (6 mice), a sorafenib + nicotinamide group (6 mice), and an osimertinib + nicotinamide group (6 mice). The groups were respectively administered corresponding modeling drugs by oral gavage (sorafenib at 100 mg/kg and osimertinib at 10 mg/kg) once daily; and the blank control group was administered an equivalent volume of normal saline. After administration with the chemotherapeutic drugs for 2 weeks, the ointments containing the compound of formula (I) (at a compound content of 3%) used in Example 10 were respectively applied topically in the groups, or nicotinamide was orally administered (100 mg/kg) once daily continuously for 16 days.
as §1, §2, §3

Where [4] appears, read: immunohistochemical staining, successfully modeled rats.
[5] abbreviates: successfully modeled rats versus normal rats, FIG. 8.
Where [6] appears, read: capecitabine and docetaxel models, 3% ointment topical or nicotinamide 100 mg/kg oral, once daily 16 days.
Setting [7] is: sorafenib and osimertinib models, 3% ointment topical or nicotinamide 100 mg/kg oral, once daily 16 days.

This is an account of results in EP4789666A1, “RNA M6A REGULATOR COMPOSITION, PREPARATION METHOD THEREFOR, AND USE THEREOF” (SHANGHAI MERNA THERAPEUTICS CO. LTD, priority 2023, dated 2025).

Each structure is given as a SMILES string.

On to `CN(C)C/C=C/C(=O)Nc1cc2c(Nc3ccc(F)c(Cl)c3)ncnc2cc1O[C@H]1CCOC1` [Afatinib, afatinib, reference compound], for which the “KRT1 and Loricrin in tissues” value in data set [1] (setting [4]) is on record as “significantly increased”. Also, in data set [1], the “Incidence rate, left paw” value is given as 8/12 (66.7%); the “Incidence rate, right paw” value is listed as 8/12 (66.7%); the “successful modeling rates for the hand-foot skin reaction” value is given as 66.7%. Besides, the “stratum corneum thickness of the paw plantar skin” value (“stratum corneum thickness” below) in data set [1] (setting [5]) is on record as “significantly higher”.
In the case of `CCCCCOC(=O)Nc1nc(=O)n([C@@H]2O[C@H](C)[C@@H](O)[C@H]2O)cc1F` [Capecitabine, capecitabine], the “cytokine IL-8 in the skin tissues of the hind limb toes” value in data set [2] (capecitabine oral for 14 days versus normal control group, immunohistochemistry, p<0.05) is listed as “significantly increased”. Further, in data set [2], the “degree of swelling of the hind limb toes of the mice” value (“degree” below) is “swelling of the hind limb toes of the mice was caused”; the “epidermal layer and stratum corneum in the skin tissues of the hind limb toes” value (shortened to “epidermal layer and stratum corneum”) was “significantly thickened”; the “skin of the hind limb toes of the mice (appearance)” value (from here on “skin … (appearance)”) is “obvious erythema, rhagades, and blisters”.
With `CC(=O)O[C@@]12CO[C@@H]1C[C@H](O)[C@@]1(C)C(=O)[C@H](O)C3=C(C)[C@@H](OC(=O)[C@H](O)[C@@H](NC(=O)OC(C)(C)C)c4ccccc4)C[C@@](O)([C@@H](OC(=O)c4ccccc4)[C@H]21)C3(C)C` [Docetaxel, docetaxel], in data set [2], the “degree” value was “swelling of the hind limb toes of the mice was caused”; the “epidermal layer and stratum corneum” value is listed as “significantly thickened”; the “skin … (appearance)” value is “obvious erythema, rhagades, and blisters”. Further, the “cytokine IL-6 in the skin tissues of the hind limb toes” value in data set [2] (docetaxel oral for 14 days versus normal control group, immunohistochemistry, p<0.05) was “significantly increased”.
As to `C#Cc1cccc(Nc2ncnc3cc(OCCOC)c(OCCOC)cc23)c1` [Erlotinib, erlotinib, reference compound], in data set [1] (rat, in vivo), the “KRT1 and Loricrin in tissues” value is listed as “significantly increased”; the “stratum corneum thickness” value is listed as “significantly higher”.
For the compound `NC(=O)c1cccnc1` [Nicotinamide, nicotinamide], the “swelling of the toes caused by the modeling drugs” value in data set [2] (setting [6]) and in data set [3] (setting [7]) was “it was not observed that oral administration of the nicotinamide at 100 mg/kg significantly alleviated the swelling” throughout. For the same compound, the “thickening of the epidermal layer and the stratum corneum in the skin tissues” value in data set [2] (setting [6]) is given as “mildly alleviated”; in data set [3] (setting [7]), “didn't significantly alleviate”. In data set [2] (capecitabine model, 3% ointment topical or nicotinamide 100 mg/kg oral), the “expression level of cytokine IL-8 in the skin tissues of the hind limb toes” value is “didn't have a significant impact”. In data set [2] (docetaxel model, 3% ointment topical or nicotinamide 100 mg/kg oral), the “expression level of cytokine IL-6 in the skin tissues of the hind limb toes” value was “didn't have a significant impact”. For the same compound, the “expression level of cytokine IL-1β in the skin tissues of the hind limb toes” value in data set [3] (osimertinib model, 3% ointment topical or nicotinamide 100 mg/kg oral) is “didn't have a significant impact”; in data set [3] (sorafenib model, 3% ointment topical or nicotinamide 100 mg/kg oral), “didn't have a significant impact”.
As for `C=CC(=O)Nc1cc(Nc2nccc(-c3cn(C)c4ccccc34)n2)c(OC)cc1N(C)CCN(C)C` [Osimertinib, osimertinib], in data set [1] (rat, in vivo), the “KRT1 and Loricrin in tissues” value was “significantly increased”; the “stratum corneum thickness” value was “significantly higher”. Besides, in data set [3], the “degree” value was “significant swelling”; the “epidermal layer and stratum corneum” value is reported as “significantly thickened”; the “skin … (appearance)” value is “obvious erythema and rhagades”. For the same compound, the “cytokine IL-1β in the skin tissues of the hind limb toes” value in data set [3] (osimertinib oral for 14 days versus normal control group) was “significantly increased”.
Consider `CNC(=O)c1cc(Oc2ccc(NC(=O)Nc3ccc(Cl)c(C(F)(F)F)c3)cc2)ccn1` [Sorafenib, sorafenib, reference compound], for which the “KRT1 and Loricrin in tissues” value in data set [1] (setting [4]) is reported as “significantly increased”. For the same compound, in data set [1], the “Incidence rate, left paw” value is reported as 9/12 (75%); the “Incidence rate, right paw” value is 9/12 (75%); the “successful modeling rates for the hand-foot skin reaction” value is listed as 75%. Also, the “stratum corneum thickness” value in data set [1] (setting [5]) was “significantly higher”. In data set [3], the “degree” value is reported as “significant swelling”; the “epidermal layer and stratum corneum” value is on record as “significantly thickened”; the “skin … (appearance)” value was “obvious erythema and rhagades”. In addition, the “cytokine IL-1β in the skin tissues of the hind limb toes” value in data set [3] (sorafenib oral for 14 days versus normal control group) is “significantly increased”.
